Values belong to the compound of their own block, whether it stands above or below them.
Test system: 817829-284-R-J1-PDC multi-cell spheroid viability
Test: Anticancer human tumor 817829-284-R-J1-PDC patient-derived colon adenocarcinoma cell line growth inhibition [PI3K]
Settings: for IC50: curve of first compound; for viability, T/C: stronger effect = lower value
In short: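 Complex 3D spheroids (cancer cells + endothelial HUVEC + mesenchymal stem cells); drug pairs of targeted agent x inavolisib/alpelisib/duvelisib/copanlisib; half-log series from ~Cmax, max 10 microM if Cmax unknown; endpoint viability.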

[1] = second compound 0.00316 µM, first compound 0.0316 µM
[2] = second compound 0.00316 µM, first compound 0.1 µM
[3] = second compound 0.00316 µM, first compound 0.316 µM
[4] = second compound 0.00316 µM, first compound 1 µM
[5] = second compound 0.00316 µM, first compound 3.16 µM
[6] = second compound 0.00316 µM, first compound 10 µM
[7] = second compound 0.01 µM, first compound 0.0316 µM
[8] = second compound 0.01 µM, first compound 0.1 µM
[9] = second compound 0.01 µM, first compound 0.316 µM
[10] = second compound 0.01 µM, first compound 1 µM
[11] = second compound 0.01 µM, first compound 3.16 µM
[12] = second compound 0.01 µM, first compound 10 µM
[13] = second compound 0.0316 µM, first compound 0.0316 µM
[14] = second compound 0.0316 µM, first compound 0.1 µM
[15] = second compound 0.0316 µM, first compound 0.316 µM
[16] = second compound 0.0316 µM, first compound 1 µM
[17] = second compound 0.0316 µM, first compound 3.16 µM
[18] = second compound 0.0316 µM, first compound 10 µM
[19] = second compound 0.1 µM, first compound 0.0316 µM
[20] = second compound 0.1 µM, first compound 0.1 µM
[21] = second compound 0.1 µM, first compound 0.316 µM
[22] = second compound 0.1 µM, first compound 1 µM
[23] = second compound 0.1 µM, first compound 3.16 µM
[24] = second compound 0.1 µM, first compound 10 µM
[25] = second compound 0.316 µM, first compound 0.0316 µM
[26] = second compound 0.316 µM, first compound 0.1 µM
[27] = second compound 0.316 µM, first compound 0.316 µM
[28] = second compound 0.316 µM, first compound 1 µM
[29] = second compound 0.316 µM, first compound 3.16 µM
[30] = second compound 0.316 µM, first compound 10 µM
[31] = second compound 1 µM, first compound 0.0316 µM
[32] = second compound 1 µM, first compound 0.1 µM
[33] = second compound 1 µM, first compound 0.316 µM
[34] = second compound 1 µM, first compound 1 µM
[35] = second compound 1 µM, first compound 3.16 µM
[36] = second compound 1 µM, first compound 10 µM
[37] = second compound 0.00316 µM, first compound 0.00316 µM
[38] = second compound 0.00316 µM, first compound 0.01 µM
[39] = second compound 0.01 µM, first compound 0.00316 µM
[40] = second compound 0.01 µM, first compound 0.01 µM
[41] = second compound 0.0316 µM, first compound 0.00316 µM
[42] = second compound 0.0316 µM, first compound 0.01 µM
[43] = second compound 0.1 µM, first compound 0.00316 µM
[44] = second compound 0.1 µM, first compound 0.01 µM
[45] = second compound 0.316 µM, first compound 0.00316 µM
[46] = second compound 0.316 µM, first compound 0.01 µM
[47] = second compound 1 µM, first compound 0.00316 µM
[48] = second compound 1 µM, first compound 0.01 µM
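Also: spheroids exposed to agents for seven days before readout.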
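For viability, T/C in this document: percent of vehicle DMSO control viability which is 100%.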

Structure (SMILES): CC1(C)CCC(CN2CCN(c3ccc(C(=O)NS(=O)(=O)c4ccc(NCC5CCOCC5)c([N+](=O)[O-])c4)c(Oc4cnc5[nH]ccc5c4)c3)CC2)=C(c2ccc(Cl)cc2)C1 + COc1c(OCCCN2CCOCC2)ccc2c3n(c(=NC(=O)c4cnc(N)nc4)nc12)CCN3
IC50 (second compound 0.00316 µM): > 10000 nM
IC50 (second compound 0.01 µM): > 10000 nM
IC50 (second compound 0.0316 µM): > 10000 nM
IC50 (second compound 0.1 µM): < 31.6 nM
IC50 (second compound 0.316 µM): < 31.6 nM
IC50 (second compound 1 µM): < 31.6 nM
viability, T/C [1]: 59.2%
viability, T/C [2]: 90.8%
viability, T/C [3]: 91.6%
viability, T/C [4]: 81.9%
viability, T/C [5]: 93.3%
viability, T/C [6]: 113%
viability, T/C [7]: 80.5%
viability, T/C [8]: 74.1%
viability, T/C [9]: 75.3%
viability, T/C [10]: 64.3%
viability, T/C [11]: 66.2%
viability, T/C [12]: 69.2%
viability, T/C [13]: 52.7%
viability, T/C [14]: 63.2%
viability, T/C [15]: 72.7%
viability, T/C [16]: 60.1%
viability, T/C [17]: 63%
viability, T/C [18]: 44.5%
viability, T/C [19]: 31.8%
viability, T/C [20]: 31.6%
viability, T/C [21]: 49.6%
viability, T/C [22]: 33.3%
viability, T/C [23]: 45.3%
viability, T/C [24]: 40.1%
viability, T/C [25]: 18.5%
viability, T/C [26]: 20.7%
viability, T/C [27]: 23.2%
viability, T/C [28]: 22.8%
viability, T/C [29]: 24.7%
viability, T/C [30]: 19.7%
viability, T/C [31]: 12.9%
viability, T/C [32]: 11.1%
viability, T/C [33]: 13.6%
viability, T/C [34]: 14.4%
viability, T/C [35]: 13.4%
viability, T/C [36]: 11.7%

Structure (SMILES): CCN1CCN(Cc2ccc(Nc3ncc(F)c(-c4cc(F)c5nc(C)n(C(C)C)c5c4)n3)nc2)CC1 + COc1c(OCCCN2CCOCC2)ccc2c3n(c(=NC(=O)c4cnc(N)nc4)nc12)CCN3
IC50 (second compound 0.00316 µM): > 1000 nM
IC50 (second compound 0.01 µM): > 1000 nM
IC50 (second compound 0.0316 µM): 57.5 nM
IC50 (second compound 0.1 µM): < 3.16 nM
IC50 (second compound 0.316 µM): < 3.16 nM
IC50 (second compound 1 µM): < 3.16 nM
viability, T/C [37]: 113%
viability, T/C [38]: 83.4%
viability, T/C [1]: 72.7%
viability, T/C [2]: 50.2%
viability, T/C [3]: 50.7%
viability, T/C [4]: 53.8%
viability, T/C [39]: 75.4%
viability, T/C [40]: 60.3%
viability, T/C [7]: 58.7%
viability, T/C [8]: 58%
viability, T/C [9]: 47.8%
viability, T/C [10]: 50.4%
viability, T/C [41]: 56%
viability, T/C [42]: 55.5%
viability, T/C [13]: 73.6%
viability, T/C [14]: 27.9%
viability, T/C [15]: 41.4%
viability, T/C [16]: 48.2%
viability, T/C [43]: 36.2%
viability, T/C [44]: 32%
viability, T/C [19]: 27.9%
viability, T/C [20]: 21.1%
viability, T/C [21]: 31.3%
viability, T/C [22]: 38.5%
viability, T/C [45]: 22%
viability, T/C [46]: 16%
viability, T/C [25]: 21.6%
viability, T/C [26]: 21.2%
viability, T/C [27]: 34.1%
viability, T/C [28]: 29.4%
viability, T/C [47]: 9.7%
viability, T/C [48]: 9.65%
viability, T/C [31]: 9.55%
viability, T/C [32]: 12.1%
viability, T/C [33]: 16.5%
viability, T/C [34]: 21.9%

Structure (SMILES): C[C@@H](NC(=O)c1ncnc(N)c1Cl)c1ncc(C(=O)Nc2cc(C(F)(F)F)c(Cl)cn2)s1 + COc1c(OCCCN2CCOCC2)ccc2c3n(c(=NC(=O)c4cnc(N)nc4)nc12)CCN3
IC50 (second compound 0.00316 µM): 10000 nM
IC50 (second compound 0.01 µM): > 10000 nM
IC50 (second compound 0.0316 µM): > 10000 nM
IC50 (second compound 0.1 µM): < 31.6 nM
IC50 (second compound 0.316 µM): < 31.6 nM
IC50 (second compound 1 µM): < 31.6 nM
viability, T/C [1]: 126%
viability, T/C [2]: 153%
viability, T/C [3]: 59.9%
viability, T/C [4]: 62%
viability, T/C [5]: 69.7%
viability, T/C [6]: 69.3%
viability, T/C [7]: 101%
viability, T/C [8]: 79.9%
viability, T/C [9]: 72%
viability, T/C [10]: 68.5%
viability, T/C [11]: 75.3%
viability, T/C [12]: 87.7%
viability, T/C [13]: 68.5%
viability, T/C [14]: 64.1%
viability, T/C [15]: 43.2%
viability, T/C [16]: 57.1%
viability, T/C [17]: 64%
viability, T/C [18]: 72.3%
viability, T/C [19]: 31%
viability, T/C [20]: 38%
viability, T/C [21]: 29.8%
viability, T/C [22]: 32.3%
viability, T/C [23]: 41.5%
viability, T/C [24]: 62.8%
viability, T/C [25]: 26.3%
viability, T/C [26]: 20%
viability, T/C [27]: 24.6%
viability, T/C [28]: 23.8%
viability, T/C [29]: 21.9%
viability, T/C [30]: 16.5%
viability, T/C [31]: 11.8%
viability, T/C [32]: 10.6%
viability, T/C [33]: 10.6%
viability, T/C [34]: 9.58%
viability, T/C [35]: 10%
viability, T/C [36]: 4.95%

Stronger by IC50 (second compound 0.00316 µM), values ahead:

IC50 (second compound 0.00316 µM): 230 nM
IC50 (second compound 0.01 µM): 88.4 nM
IC50 (second compound 0.0316 µM): 76.7 nM
IC50 (second compound 0.1 µM): < 31.6 nM
IC50 (second compound 0.316 µM): < 31.6 nM
IC50 (second compound 1 µM): < 31.6 nM
Structure (SMILES): CC(C)NCC(C(=O)N1CCN(c2ncnc3c2C(C)CC3O)CC1)c1ccc(Cl)cc1 (stereo not given) + COc1c(OCCCN2CCOCC2)ccc2c3n(c(=NC(=O)c4cnc(N)nc4)nc12)CCN3
viability, T/C [1]: 78.3%
viability, T/C [2]: 51.8%
viability, T/C [3]: 54.5%
viability, T/C [4]: 30.8%
viability, T/C [5]: 23%
viability, T/C [6]: 15.1%
viability, T/C [7]: 65%
viability, T/C [8]: 49.1%
viability, T/C [9]: 24.8%
viability, T/C [10]: 21.6%
viability, T/C [11]: 21.2%
viability, T/C [12]: 10.2%
viability, T/C [13]: 72.6%
viability, T/C [14]: 40.6%
viability, T/C [15]: 29.9%
viability, T/C [16]: 21.4%
viability, T/C [17]: 22.9%
viability, T/C [18]: 9.33%
viability, T/C [19]: 40.7%
viability, T/C [20]: 23.7%
viability, T/C [21]: 26.5%
viability, T/C [22]: 15.4%
viability, T/C [23]: 13.4%
viability, T/C [24]: 8.69%
viability, T/C [25]: 20%
viability, T/C [26]: 19.8%
viability, T/C [27]: 23.6%
viability, T/C [28]: 16.6%
viability, T/C [29]: 8.4%
viability, T/C [30]: 7.04%
viability, T/C [31]: 12.4%
viability, T/C [32]: 12.3%
viability, T/C [33]: 13.2%
viability, T/C [34]: 10%
viability, T/C [35]: 6.2%
viability, T/C [36]: 5%

IC50 (second compound 0.00316 µM): 13.6 nM
IC50 (second compound 0.01 µM): 16.1 nM
IC50 (second compound 0.0316 µM): 5.26 nM
IC50 (second compound 0.1 µM): < 0.316 nM
IC50 (second compound 0.316 µM): < 0.316 nM
IC50 (second compound 1 µM): < 0.316 nM
Structure (SMILES): CC(C)n1nc(-c2ccc3oc(N)nc3c2)c2c(N)ncnc21 + COc1c(OCCCN2CCOCC2)ccc2c3n(c(=NC(=O)c4cnc(N)nc4)nc12)CCN3
viability, T/C (second compound 0.00316 µM, first compound 0.000316 µM): 66.8%
viability, T/C (second compound 0.00316 µM, first compound 0.001 µM): 83.7%
viability, T/C [37]: 72.2%
viability, T/C [38]: 45.5%
viability, T/C [1]: 42.6%
viability, T/C [2]: 17.8%
viability, T/C (second compound 0.01 µM, first compound 0.000316 µM): 44%
viability, T/C (second compound 0.01 µM, first compound 0.001 µM): 83.3%
viability, T/C [39]: 67.6%
viability, T/C [40]: 70.9%
viability, T/C [7]: 26.6%
viability, T/C [8]: 14.4%
viability, T/C (second compound 0.0316 µM, first compound 0.000316 µM): 78.5%
viability, T/C (second compound 0.0316 µM, first compound 0.001 µM): 72.7%
viability, T/C [41]: 45.5%
viability, T/C [42]: 46.5%
viability, T/C [13]: 37.7%
viability, T/C [14]: 19.6%
viability, T/C (second compound 0.1 µM, first compound 0.000316 µM): 31.9%
viability, T/C (second compound 0.1 µM, first compound 0.001 µM): 31.8%
viability, T/C [43]: 38%
viability, T/C [44]: 31.1%
viability, T/C [19]: 26.9%
viability, T/C [20]: 17%
viability, T/C (second compound 0.316 µM, first compound 0.000316 µM): 21.1%
viability, T/C (second compound 0.316 µM, first compound 0.001 µM): 22.8%
viability, T/C [45]: 23.6%
viability, T/C [46]: 17.7%
viability, T/C [25]: 21.8%
viability, T/C [26]: 18.7%
viability, T/C (second compound 1 µM, first compound 0.000316 µM): 9.62%
viability, T/C (second compound 1 µM, first compound 0.001 µM): 14%
viability, T/C [47]: 9.7%
viability, T/C [48]: 10.8%
viability, T/C [31]: 8.57%
viability, T/C [32]: 6.68%

Source: PubChem BioAssay AID1963969 (Molecular Pharmacology Branch, DTP, NCI, 2024)
